The target in one assay is T1, hNET (Homo sapiens, UniProt P23975).
T1 construct: expressed in transfected cells
Kind of assay: Batch release assay ([3H]MPP+) in transfected HEK293 cells. In kind it is cell-based. To be noted: % efflux of total uptake, compounds approximately at IC50 concentration. The protocol:
(§1) Batch release assays were performed as described previously ([44]). In brief, HEK293 cells stably expressing monoamine transporters were seeded similar to the procedure used for uptake inhibition assays. A day after seeding cells were pre-loaded with 50 μl/well 0.015 μM [^3H]MPP^+ (hDAT, hNET), or 0.08 μM [^3H]5-HT (hSERT) for 20 min at 37 °C. Then cells were washed four times for 3 to 4 min each and further incubated with KHB or KHB + monensin. After 10 min of incubation, two (screening) to four (full traces; hSERT) 2 min incubations were performed to establish a baseline release without substance. […] Each fraction was transferred to an empty well in the 96-well plate. For screening, a known inhibitor (hDAT, hNET: 50 μM GBR12909) and releaser (hDAT, hNET: 10 μM S-(+)-amphetamine) were used as controls. Ultima Gold XR scintillation cocktail was added to the remaining cells, and each well contained a release fraction. The counted radioactivity in the respective fraction was expressed as a percentage of total radioactivity at the start of the fraction.
(§2) Half-maximal inhibitory concentrations (IC50) were obtained from fitting a sigmoidal dose–response ( Y=Bottom+Top−Bottom/1+10^((LogIC50−X)·HillSlope) ) in GraphPad Prism 10.3.1 (GraphPad Software Inc.). Uptake inhibition data were evaluated by one-way ANOVA followed by Tukey's multiple comparisons test. Release data were analyzed using a two-way ANOVA (batch release) or a mixed-effects model with Geisser-Greenhouse correction (time-dependent traces) employing Šidák correction for comparing differences between compounds with or without the addition of monensin.

The next assay deals with T2, hDAT (Homo sapiens, UniProt Q01959).
T2 construct: expressed in transfected cells
Described as above. It is filed as cell-based. To be noted: % efflux of total uptake, compounds approximately at IC50 concentration. As for the experimental part:
as §1, §2

For the next assay, the system named is humans. On the set-up: method as in PMID 4392006, PMID 7437258. The note with it: dose range of 10–30 mg ref 15, 16; cited from earlier work.
For a further assay, the target named is rSERT (Rattus norvegicus, UniProt P31652). It is filed as cell-based. To be noted: for Mean diff, rSERT efflux ± Mon (Šídák's multiple comparisons test): drug alone vs drug + monensin (Mon). More on the design: expressed in transfected cells. As for the experimental part:
A day prior to the experiment, HEK293 cells stably expressing hSERT or rat SERT (rSERT) were seeded at a density of 100,000 cells per channel into 6 channel flow ibidi slides (Gräfelfing, Germany). On the day of the experiments, cells were preloaded with 0.1 μM [^3H]5-HT at 37 °C, 5% CO2 for 20 min. Subsequently, the slides were transferred to the superfusion apparatus ([59]). Cells were then washed with KHB for 15 min under a constant flow of 0.5 ml/min. Fractions were collected every 2 min in 8 ml vials containing 2 ml scintillation cocktail. Collection began with three baseline fractions using KHB, followed by four additional basal release fractions with KHB, either with or without 10 μM monensin. […] To assess residual radioactivity within the cells, they were lysed with 1% sodium dodecyl sulfate (SDS), and three final fractions were obtained. The measured tritiated substrate in each fraction was expressed as a percentage of the initial tritiated substrate present at the start of that fraction.
Uptake inhibition data were evaluated by one-way ANOVA followed by Tukey's multiple comparisons test. Release data were analyzed using a two-way ANOVA (batch release) or a mixed-effects model with Geisser-Greenhouse correction (time-dependent traces) employing Šidák correction for comparing differences between compounds with or without the addition of monensin.

Another assay addresses T3, hSERT (Homo sapiens, UniProt P31645).
T3 construct: expressed in transfected cells
More on the design: method as in PMID 30397775. To be noted: cited from earlier work.

For another assay, the system named is native HEK293 cells. The experiment in a line: Whole-cell patch-clamp control in native HEK293 cells without transfection. The note with it: prolintane 30 µM, 5-HT 10 µM (Fig. S3). It is filed as cell-based, human. The protocol: One day prior to recording, either native HEK293 cells or HEK293 cells stably expressing monoamine transporters were seeded at low density onto PDL-coated 35 mm dishes. Patch-clamp experiments were conducted at a holding potential of −60 mV, with substrate-induced currents recorded at room temperature (20–24 °C) using an […] amplifier and pClamp 11.2 software (MDS Analytical Technologies). During recordings, cells were continuously superfused via a DAD-12 perfusion system and an 8-tube manifold (ALA Scientific Instruments), delivering an external solution composed of 140 mM NaCl, 2.5 mM CaCl2, 3 mM KCl, 2 mM MgCl2, 20 mM glucose, and 10 mM HEPES, with pH adjusted to 7.3 using NaOH. The intracellular pipette solution, designed to mimic physiological ionic conditions, contained 133 mM potassium gluconate, 5.9 mM NaCl, 1 mM CaCl2, 0.7 mM MgCl2, 10 mM HEPES, and 10 mM EGTA, with pH set to 7.2 using KOH. Currents were filtered at 1 kHz and digitized at 10 kHz via a Digidata 1550 digitizer (MDS Analytical Technologies), followed by analysis in Clampfit 10.2 (Molecular Devices). Substance-induced currents were normalized to the current elicited by a saturating concentration of 5-HT (10 μM) of the same cell. Holding currents were subtracted, and a 50 Hz digital Gaussian low-pass filter was applied to the traces for further analysis.
A general note: Patch clamp records ionic current or voltage across a cell membrane.

The subject of the next assay is mice. More on the design: method as in PMID 34896117. The note with it: moderate and high doses ref 2; cited from earlier work.

Consider 7 compounds from paper PMC12720098, “Prolintane analogs as hybrid monoamine transporter ligands: Structural determinants and species differences” (The Journal of Biological Chemistry, 2025).

Like-named read-outs stand apart in the source and are kept apart here.

Chain of rSERT (P31652 whole entry, the tested form may be a part): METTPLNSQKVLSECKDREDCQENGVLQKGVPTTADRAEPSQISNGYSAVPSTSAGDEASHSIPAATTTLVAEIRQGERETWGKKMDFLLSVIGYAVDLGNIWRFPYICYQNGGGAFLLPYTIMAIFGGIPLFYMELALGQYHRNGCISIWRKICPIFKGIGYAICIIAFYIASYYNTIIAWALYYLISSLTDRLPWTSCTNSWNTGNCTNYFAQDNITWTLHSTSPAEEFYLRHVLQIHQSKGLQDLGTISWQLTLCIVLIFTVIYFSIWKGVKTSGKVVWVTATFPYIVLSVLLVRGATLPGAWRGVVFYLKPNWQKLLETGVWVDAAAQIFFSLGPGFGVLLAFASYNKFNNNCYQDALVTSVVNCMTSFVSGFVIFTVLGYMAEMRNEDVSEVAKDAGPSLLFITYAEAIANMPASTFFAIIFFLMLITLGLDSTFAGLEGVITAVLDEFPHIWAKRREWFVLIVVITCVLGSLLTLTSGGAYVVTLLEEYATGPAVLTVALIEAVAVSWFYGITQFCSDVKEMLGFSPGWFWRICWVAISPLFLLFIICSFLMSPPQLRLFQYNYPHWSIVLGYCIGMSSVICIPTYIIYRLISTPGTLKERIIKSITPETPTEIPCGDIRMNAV
T2 sequence (Q01959 whole entry): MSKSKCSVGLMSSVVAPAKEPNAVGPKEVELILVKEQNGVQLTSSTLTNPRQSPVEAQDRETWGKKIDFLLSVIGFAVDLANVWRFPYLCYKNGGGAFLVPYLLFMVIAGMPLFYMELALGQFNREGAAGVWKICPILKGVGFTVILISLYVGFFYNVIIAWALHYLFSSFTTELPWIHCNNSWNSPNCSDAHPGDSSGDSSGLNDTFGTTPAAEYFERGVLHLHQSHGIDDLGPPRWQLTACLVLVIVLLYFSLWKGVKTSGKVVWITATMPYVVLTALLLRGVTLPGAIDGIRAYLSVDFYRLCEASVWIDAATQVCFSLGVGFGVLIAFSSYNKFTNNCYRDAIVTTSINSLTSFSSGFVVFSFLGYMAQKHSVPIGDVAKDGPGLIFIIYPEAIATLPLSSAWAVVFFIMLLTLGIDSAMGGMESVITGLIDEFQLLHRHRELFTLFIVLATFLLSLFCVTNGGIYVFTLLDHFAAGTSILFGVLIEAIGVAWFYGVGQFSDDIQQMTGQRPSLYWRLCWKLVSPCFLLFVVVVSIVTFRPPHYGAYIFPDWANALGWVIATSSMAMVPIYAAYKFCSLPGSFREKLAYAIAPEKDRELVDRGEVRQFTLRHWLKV
T1 sequence (P23975 whole entry): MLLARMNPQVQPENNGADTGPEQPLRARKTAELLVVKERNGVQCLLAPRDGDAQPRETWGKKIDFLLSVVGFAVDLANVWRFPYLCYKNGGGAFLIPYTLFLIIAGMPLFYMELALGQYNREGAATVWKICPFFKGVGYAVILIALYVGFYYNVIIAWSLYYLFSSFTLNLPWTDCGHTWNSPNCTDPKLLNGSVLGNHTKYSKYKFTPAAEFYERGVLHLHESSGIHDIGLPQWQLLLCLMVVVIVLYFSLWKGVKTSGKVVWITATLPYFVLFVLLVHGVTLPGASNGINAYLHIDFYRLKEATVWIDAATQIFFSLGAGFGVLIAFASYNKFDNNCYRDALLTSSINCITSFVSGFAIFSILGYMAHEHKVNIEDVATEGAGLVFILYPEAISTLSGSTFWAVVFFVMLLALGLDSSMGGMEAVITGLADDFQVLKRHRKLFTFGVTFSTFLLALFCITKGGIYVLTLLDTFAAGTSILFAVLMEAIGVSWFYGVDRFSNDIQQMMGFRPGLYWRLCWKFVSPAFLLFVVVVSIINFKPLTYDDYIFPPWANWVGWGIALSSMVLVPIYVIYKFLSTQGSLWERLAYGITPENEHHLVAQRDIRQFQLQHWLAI
T3 sequence (P31645 whole entry): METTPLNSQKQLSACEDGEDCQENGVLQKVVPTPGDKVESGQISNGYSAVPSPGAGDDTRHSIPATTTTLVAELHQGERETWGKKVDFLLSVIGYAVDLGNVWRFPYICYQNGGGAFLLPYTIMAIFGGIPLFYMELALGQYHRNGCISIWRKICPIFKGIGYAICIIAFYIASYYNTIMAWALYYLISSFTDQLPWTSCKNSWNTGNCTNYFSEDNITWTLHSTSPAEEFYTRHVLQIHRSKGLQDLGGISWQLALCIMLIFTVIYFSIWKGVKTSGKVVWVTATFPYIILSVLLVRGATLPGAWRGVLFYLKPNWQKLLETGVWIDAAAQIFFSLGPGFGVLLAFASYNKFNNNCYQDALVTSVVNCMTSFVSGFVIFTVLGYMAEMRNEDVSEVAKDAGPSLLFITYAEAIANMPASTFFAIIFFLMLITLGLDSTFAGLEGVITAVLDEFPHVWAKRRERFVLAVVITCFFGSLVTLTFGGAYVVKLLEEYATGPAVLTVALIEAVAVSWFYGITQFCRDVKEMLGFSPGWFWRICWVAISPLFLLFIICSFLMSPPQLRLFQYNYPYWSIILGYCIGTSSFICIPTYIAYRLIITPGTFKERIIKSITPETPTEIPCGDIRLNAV

In the case of `CCCC(Cc1ccccc1)N1CCCC1` (centres unmarked) [Prolintane, 1-(1-phenylpentan-2-yl)pyrrolidine], the “hNET-mediated efflux, predicted (LS) mean diff, No mon - Mon” value at hNET is given as -0.3446. In addition, at hDAT, the “hDAT-mediated efflux, predicted (LS) mean diff, No mon - Mon” value is listed as 0.1383. Besides, in the assay on humans, the clinical effects entry is “dose-dependent psychostimulant effects, sympathomimetic effects and reduced total rapid eye movement (REM) sleep”. For the same compound, the “Mean diff, rSERT efflux ± Mon (Šídák's multiple comparisons test)” value on rSERT (Row 1 (time fraction)) was -0.3272; on rSERT (Row 2 (time fraction)) it was -0.2896; on rSERT (Row 3 (time fraction)), -0.1547; at rSERT (Row 4 (time fraction)), -0.119; at rSERT (Row 5 (time fraction)), -0.6706; at rSERT (Row 6 (time fraction)), -0.9234. The “Mean diff, rSERT efflux ± Mon (Šídák's multiple comparisons test)” value at rSERT (Row 7 (time fraction)) is -1.427; on rSERT (Row 8 (time fraction)), -2.621; at rSERT (Row 9 (time fraction)), -2.612; on rSERT (Row 10 (time fraction)), -2.362; at rSERT (Row 11 (time fraction)), -2.416; at rSERT (Row 12 (time fraction)), -2.279. For the same compound, the “[3H]5-HT releasing profile in cells expressing rSERT” value at rSERT (superfusion, HEK293 cells, with and without monensin) is listed as “almost identical pseudo-efflux releasing profile”. For the same compound, on hSERT, the “effects at hSERT, fold weaker than at hDAT and hNET” value is “approximately 10 fold”. Besides, the entries for the “current in native HEK293 cells without transfection” value in the assay on native HEK293 cells and with native HEK293 cells (listed as prolintane) were “do not induce currents” and “no current could be recorded”, respectively. Further, in the assay on mice, the abuse-related behavioural effects result was “rewarding and reinforcing effects”.
With `CCCC(Cc1cccc(C)c1)N1CCCC1` (centres unmarked) [3-Methylprolintane, 1-[1-(3-methylphenyl)pentan-2-yl]pyrrolidine], the “hNET-mediated efflux, predicted (LS) mean diff, No mon - Mon” value on hNET is -0.8634. In addition, the “hDAT-mediated efflux, predicted (LS) mean diff, No mon - Mon” value at hDAT is given as -0.702.
`CCCC(Cc1ccccc1F)N1CCCC1` (centres unmarked) [2-Fluoroprolintane, 1-[1-(2-fluorophenyl)pentan-2-yl]pyrrolidine]: the “hNET-mediated efflux, predicted (LS) mean diff, No mon - Mon” value on hNET is reported as 0.3867. The “hDAT-mediated efflux, predicted (LS) mean diff, No mon - Mon” value at hDAT is -0.6425.
In the same order, the values of `CCCC(Cc1ccc(F)cc1)N1CCCC1` (centres unmarked) [4-Fluoroprolintane, 1-[1-(4-fluorophenyl)pentan-2-yl]pyrrolidine] are 0.3845 and -0.2875.
The corresponding values for `CCCC(Cc1cccc(F)c1)N1CCCC1` (centres unmarked) [3-Fluoroprolintane, 1-[1-(3-fluorophenyl)pentan-2-yl]pyrrolidine] are 0.3678 and 0.0325.
Turning to `CCCC(Cc1ccccc1C)N1CCCC1` (centres unmarked) [2-Methylprolintane, 1-[1-(2-methylphenyl)pentan-2-yl]pyrrolidine], the “hNET-mediated efflux, predicted (LS) mean diff, No mon - Mon” value on hNET is given as -0.3417. On hDAT, the “hDAT-mediated efflux, predicted (LS) mean diff, No mon - Mon” value is -0.04333.
The corresponding values for `CCCC(Cc1ccc(C)cc1)N1CCCC1` (centres unmarked) [4-Methylprolintane, 1-[1-(4-methylphenyl)pentan-2-yl]pyrrolidine] are -0.3451 and -0.8967.
